Assay results: PMC8838460, “Expression, Purification, and Comparative Inhibition of Helicobacter pylori Urease by Regio-Selectively Alkylated Benzimidazole 2-Thione Derivatives” (Molecules, 2022)
Read-outs that look alike come from different tables or passages of the source.

What was measured:
[1] = system: Rat; details: TOPKAT structural similar compounds, cited from earlier work
[2] = system: Rat; details: TOPKAT structural similar compounds; ref CPDB; cited from earlier work
[3] = system: Mouse; parameters: method as in earlier work; details: TOPKAT structural similar compounds; ref CPDB; cited from earlier work
[4] = molecular target: H. pylori Urease (Helicobacter pylori, UniProt P69996); assay: Urease inhibition assay (indophenol method) on recombinant H. pylori urease; assay type: biochemical; details: for Type of inhibition (in words): H. pylori urease; for Vmax: H. pylori urease with inhibitor
Procedure: (§1) Reaction mixtures comprising 25 μL of urease enzymes solution and 55 μL of sodium phosphate buffers containing 100 mM urea were incubated with 5 μL of tested compounds above (0.5 mM concentration) at 30 °C for 15 min in 96-well plates. Urease activity was determined by measuring the ammonia production using the indophenol method as described by Weatherburn. Briefly, 45 μL of each phenol reagent (1% w/v phenol and 0.005% w/v sodium nitroprussside) and 70 μL of alkali reagent (0.5% w/v NaOH and 0.1% active chloride NaOCl) were added to each well. The absorbance at 630 nm was measured after 50 min using a microplate reader (SPECTRO star Nano, Ortenberg, Germany). All reactions were performed in triplicate in a final volume of 200 μL. The results (change in absorbance per min) were processed by using MARS Data Analysis Version 2.41, software (SPECTRO star Nano, Ortenberg, Germany).
(§2) The assays were performed at pH 6.8. The percentage of inhibitions were calculated from the formula 100 − (ODtest well/ODcontrol) × 100. Thiourea was used as the standard inhibitor of Urease.
(§3) The concentrations of the test compounds that inhibited the hydrolysis of substrates by 50% (IC50) were determined by monitoring the effect of various concentrations of these compounds in the assays on the inhibition values. The IC50 values were then calculated using Graph Pad Prism 6 software.

[5] = molecular target: T1, J. bean Urease (Canavalia ensiformis, UniProt P07374); assay: Urease inhibition assay (indophenol method) on commercial Jack bean urease; assay type: biochemical; details: for Type of inhibition (in words): J. bean urease; for Vmax: J. bean urease with inhibitor
T1 construct: purchased
Procedure: as §1, §2, §3

[6] = system: fibroblast cells; assay: In vitro cytotoxicity, neutral red assay on fibroblast cells; assay type: cell-based; details: for inhibition at 0.003 µM: Conc. 0.003 µM; for inhibition at 0.007 µM: Conc. 0.007 µM; for inhibition at 0.015 µM: Conc. 0.015 µM; for inhibition at 0.031 µM: Conc. 0.031 µM; for inhibition at 0.064 µM: Conc. 0.064 µM; for inhibition at 0.123 µM: Conc. 0.123 µM; for cytotoxicity (in words): in high concentrations
Procedure: The active compounds were selected and subjected to cytotoxicity evaluation using the neutral red assay. Cytotoxic assays were performed according to Borenfreund and Puerner.

T1 sequence (P07374 whole entry, looked up): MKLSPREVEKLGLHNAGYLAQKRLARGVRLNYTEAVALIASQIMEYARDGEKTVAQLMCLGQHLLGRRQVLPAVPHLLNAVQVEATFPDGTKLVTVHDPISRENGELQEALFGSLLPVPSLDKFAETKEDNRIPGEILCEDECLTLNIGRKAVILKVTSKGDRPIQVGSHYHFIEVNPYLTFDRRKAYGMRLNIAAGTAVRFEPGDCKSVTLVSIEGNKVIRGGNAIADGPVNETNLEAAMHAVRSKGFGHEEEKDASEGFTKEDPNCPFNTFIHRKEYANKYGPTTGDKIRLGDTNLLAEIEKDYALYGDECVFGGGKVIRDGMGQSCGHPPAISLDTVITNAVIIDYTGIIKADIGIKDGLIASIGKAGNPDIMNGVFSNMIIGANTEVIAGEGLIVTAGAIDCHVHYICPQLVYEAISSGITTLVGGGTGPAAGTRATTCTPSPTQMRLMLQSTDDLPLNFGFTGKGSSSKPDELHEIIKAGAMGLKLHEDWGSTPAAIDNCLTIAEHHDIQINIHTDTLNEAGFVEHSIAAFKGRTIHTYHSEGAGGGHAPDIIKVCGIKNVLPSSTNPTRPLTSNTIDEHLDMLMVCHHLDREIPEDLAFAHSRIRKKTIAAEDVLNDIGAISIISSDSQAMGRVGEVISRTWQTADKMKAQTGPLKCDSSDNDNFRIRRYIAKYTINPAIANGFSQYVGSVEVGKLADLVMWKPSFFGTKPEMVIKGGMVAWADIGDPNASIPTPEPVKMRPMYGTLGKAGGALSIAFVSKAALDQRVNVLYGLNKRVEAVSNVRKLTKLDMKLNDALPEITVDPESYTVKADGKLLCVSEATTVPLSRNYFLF
Chain of H. pylori Urease (P69996 whole entry): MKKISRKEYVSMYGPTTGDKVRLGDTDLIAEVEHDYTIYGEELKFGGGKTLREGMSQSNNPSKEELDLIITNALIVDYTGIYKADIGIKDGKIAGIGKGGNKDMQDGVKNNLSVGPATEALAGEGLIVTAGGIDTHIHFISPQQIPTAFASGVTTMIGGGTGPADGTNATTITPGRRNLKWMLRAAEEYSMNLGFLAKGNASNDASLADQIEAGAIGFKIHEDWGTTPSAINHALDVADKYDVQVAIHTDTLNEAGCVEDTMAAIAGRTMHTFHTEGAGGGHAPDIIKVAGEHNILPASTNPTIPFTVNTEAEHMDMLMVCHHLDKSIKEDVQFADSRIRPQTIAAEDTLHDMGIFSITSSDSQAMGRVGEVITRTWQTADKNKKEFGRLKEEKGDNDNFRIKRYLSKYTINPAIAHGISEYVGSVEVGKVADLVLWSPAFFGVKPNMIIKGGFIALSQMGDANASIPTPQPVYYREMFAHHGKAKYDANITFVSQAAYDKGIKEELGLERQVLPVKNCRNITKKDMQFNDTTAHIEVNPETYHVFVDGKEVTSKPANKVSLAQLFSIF
Chain of H. pylori Urease (P14916 whole entry, further chain): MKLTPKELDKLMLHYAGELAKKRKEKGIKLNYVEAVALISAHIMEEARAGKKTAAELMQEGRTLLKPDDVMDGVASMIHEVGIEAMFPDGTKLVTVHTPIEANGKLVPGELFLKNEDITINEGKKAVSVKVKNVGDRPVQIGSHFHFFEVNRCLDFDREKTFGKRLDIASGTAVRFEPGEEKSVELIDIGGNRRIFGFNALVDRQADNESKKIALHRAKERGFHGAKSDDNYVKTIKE

Molecule: CCOCSc1nc2ccccc2n1COCC
- melting point: 108 °C

Molecule: N#CCSc1nc2ccccc2n1CC#N
- melting point: 161 to 163 °C

Molecule: OCCCSc1nc2ccccc2[nH]1
- melting point: 119 °C

Molecule: CC(O)CSc1nc2ccccc2[nH]1 (stereo not drawn)
- melting point: 250 °C

Molecule: CCCCCCCCCCCSc1nc2ccccc2[nH]1
- melting point: 104 °C

Molecule: CCOC(CSc1nc2ccccc2[nH]1)OCC
- melting point: 80 °C

Molecule: CCCCSc1nc2ccccc2[nH]1
- melting point: 145 °C

Molecule: c1ccc2[nH]c(SCC3CO3)nc2c1 (stereo not drawn)
- melting point: 211 °C

Molecule: NC(=O)Nc1ccccc1
- Actual Endpoint (-log C), Rat Oral LD50 ([1]; ref IIFBA4 12;195;69): 1.833 -log C

Molecule: CC(O)CN (stereo not drawn) [1-AMINO-2-PROPANOL]
- Actual Endpoint (-log C), Rat Oral LD50 ([1]; ref JACTDZ 6(1);53;87): 1.554 -log C

Molecule: NC(=S)Nc1ccccc1 [1-PHENYL-2-THIOUREA]
- Actual Endpoint (-log C), Rat Oral LD50 ([1]; ref JMPCAS 4;109;61): 4.705 -log C

Molecule: Sc1nc2ccccc2s1 [2-Mercaptobenzothiazole]
- Actual Endpoint (-log C), Carcinogenic Potency TD50 Rat [2]: 2.687 -log C

Molecule: CC(N)=O [Acetamide]
- Actual Endpoint (-log C), Carcinogenic Potency TD50 Mouse [3]: 1.293 -log C
- Actual Endpoint (-log C), Carcinogenic Potency TD50 Rat [2]: 2.516 -log C

Molecule: CC(=O)Nc1ccc(O)cc1 [Acetaminophen, reference compound]
- Actual Endpoint (-log C), Carcinogenic Potency TD50 Rat [2]: 2.485 -log C

Molecule: Oc1ccccc1O [Catechol]
- Actual Endpoint (-log C), Carcinogenic Potency TD50 Mouse [3]: 2.654 -log C

Molecule: CC(C)(Oc1ccc(C2CC2(Cl)Cl)cc1)C(=O)O (stereo not drawn) [Ciprofibrate, reference compound]
- Actual Endpoint (-log C), Carcinogenic Potency TD50 Mouse [3]: 4.669 -log C

Molecule: Sc1nc2ccccc2[nH]1 [Compound 2, 1H-Benzimidazole-2(3H)-thione]
- Type of inhibition (in words) [4]: non-competitive
- Vmax [4]: 1.54 ± 0.057 µmol/min
- IC50 [5]: 260 ± 8 µM
- Type of inhibition (in words) [5]: non-competitive
- Vmax [5]: 1.53 ± 0.005 µmol/min
- inhibition at 0.009 µM ([6]; Fibroblast): 20%
- inhibition at 0.003 µM ([6]; fibroblast cells): 40.4%
- inhibition at 0.007 µM ([6]; fibroblast cells): 44%
- inhibition at 0.015 µM ([6]; fibroblast cells): 49.4%
- inhibition at 0.031 µM ([6]; fibroblast cells): 49.5%
- inhibition at 0.064 µM ([6]; fibroblast cells): 80.6%
- inhibition at 0.123 µM ([6]; fibroblast cells): 82.5%
- cytotoxicity (in words) ([6]; fibroblast cells): not cytotoxic

Molecule: CCOCn1c(=S)[nH]c2ccccc21 [Compound 5, 1-(Ethoxymethyl)-1H-benzo[d]imidazole-2(3H)-thione]
- Type of inhibition (in words) [4]: uncompetitive
- Vmax [4]: 1.52 ± 0.024 µmol/min
- IC50 [5]: 290 ± 18 µM
- Type of inhibition (in words) [5]: non-competitive
- Vmax [5]: 1.60 ± 0.04 µmol/min
- inhibition at 0.003 µM ([6]; fibroblast cells): -28.8%
- inhibition at 0.007 µM ([6]; fibroblast cells): -15.9%
- inhibition at 0.009 µM ([6]; fibroblast cells, Conc. 0.009 µM, read-out: % Inhibition): -61.2%
- inhibition at 0.015 µM ([6]; fibroblast cells): 4.6%
- inhibition at 0.031 µM ([6]; fibroblast cells): 26.2%
- inhibition at 0.064 µM ([6]; fibroblast cells): 52.1%
- inhibition at 0.123 µM ([6]; fibroblast cells): 53.5%
- cytotoxicity (in words) ([6]; fibroblast cells): not cytotoxic

Molecule: O=c1ccc(=O)[nH][nH]1 [MALEIC HYDRAZIDE]
- Actual Endpoint (-log C), Rat Oral LD50 ([1]; ref WRPCA2 9;119;70): 1.47 -log C

Molecule: CNN [METHYLHYDRAZINE]
- Actual Endpoint (-log C), Rat Oral LD50 ([1]; ref XAWPA2 CWL): 3.158 -log C

Molecule: CC(=O)NN [Monoacetyl hydrazine]
- Actual Endpoint (-log C), Carcinogenic Potency TD50 Mouse [3]: 3.876 -log C

Molecule: CCOc1ccc(NC(C)=O)cc1 [Phenacetin, reference compound]
- Actual Endpoint (-log C), Carcinogenic Potency TD50 Rat [2]: 2.156 -log C

Molecule: S=C1NCCC(COc2ccccc2)O1 (stereo not drawn) [TIFEMOXONE, reference compound]
- Actual Endpoint (-log C), Rat Oral LD50 ([1]; ref ATSUDG 1;229;78): 2.006 -log C

Molecule: CC(=N)S [Thioacetamide]
- Actual Endpoint (-log C), Carcinogenic Potency TD50 Rat [2]: 3.815 -log C

Molecule: Cc1cccc(NC(N)=O)c1 [m-TOLYLUREA]
- Actual Endpoint (-log C), Rat Oral LD50 ([1]; ref IIFBA4 12;195;69): 2.053 -log C

Molecule: CCOc1ccccc1C(N)=O [o-Ethoxybenzamide]
- Actual Endpoint (-log C), Carcinogenic Potency TD50 Mouse [3]: 2.508 -log C

Molecule: O=Nc1ccc(Nc2ccccc2)cc1 [p-Nitrosodiphenylamine]
- Actual Endpoint (-log C), Carcinogenic Potency TD50 Rat [2]: 2.994 -log C

Molecule: Cc1ccc(NC(N)=O)cc1 [p-Tolylurea]
- Actual Endpoint (-log C), Carcinogenic Potency TD50 Mouse [3]: 2.863 -log C

Molecule: Methylhydrazine s
- Actual Endpoint (-log C), Carcinogenic Potency TD50 Mouse [3]: 3.785 -log C
